Experimental data reported in patent US20110039721A1, “METHOD FOR PREDICTION ABOUT CARCINOGENICITY OF SUBSTANCE IN RODENT” (Chemicals Evaluation and Research Institute, priority 2007, published 2011).

Experiments:
[1] = test system: liver; settings: in vivo; cited from earlier work
[2] = test system: rodent; settings: in vivo; cited from earlier work
[3] = test system: mRNA expressed from the genes (A) to (D) in rat liver; test: Behavior of genes (mRNA expression level, oligo-DNA microarray) in rat liver after 28-day oral administration; type: in vivo; settings: mRNA vs vehicle control group
In short: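 Male F344 SPF rats, 5 weeks old, four per group, dosed by oral gavage once daily for 28 days with test chemical or matched-volume solvent. Liver total RNA profiled on oligo-DNA microarray. Change ≥1.5-fold or ≤1/1.5 versus vehicle counted as significant if its direction matched that seen with other carcinogens.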

[4] = gene group (A), Unigene No. Rn.167075
[5] = gene group (C), Unigene No. Rn.120914

ClC1=C(Cl)C2(Cl)C3C4C=CC(C4)C3C1(Cl)C2(Cl)Cl (centres unmarked) [TS015, Aldrin]
Cr−: Liver carcinogenicity [1]
+: Behavior of gene caused by administration of chemical substance, Gene No. 6182 ([3]; gene group (A), Unigene No. Rn.5834) | Behavior of gene caused by administration of chemical substance, Gene No. 2045 ([3]; gene group (B), Unigene No. Rn.19329) | Behavior of gene caused by administration of chemical substance, Gene No. 2203 ([3]; gene group (B), Unigene No. Rn.21240) | Behavior of gene caused by administration of chemical substance, Gene No. 2494 ([3]; gene group (C), Unigene No. Rn.23969)
C+: Carcinogenicity [2]
−: Behavior of gene caused by administration of chemical substance, Gene No. 4846 ([3]; gene group (A), Unigene No. Rn.144554) | Behavior of gene caused by administration of chemical substance, Gene No. 2026 [3, 4] | Behavior of gene caused by administration of chemical substance, Gene No. 4218 [3, 4] | Behavior of gene caused by administration of chemical substance, Gene No. 5600 ([3]; gene group (A), Unigene No. Rn.9836) | Behavior of gene caused by administration of chemical substance, Gene No. 1494 ([3]; gene group (B), Unigene No. Rn.1430) | Behavior of gene caused by administration of chemical substance, Gene No. 533 ([3]; gene group (C), Unigene No. Rn.106184) | Behavior of gene caused by administration of chemical substance, Gene No. 725 ([3]; gene group (C), Unigene No. Rn.108075) | Behavior of gene caused by administration of chemical substance, Gene No. 1163 ([3]; gene group (C), Unigene No. Rn.11766) | Behavior of gene caused by administration of chemical substance, Gene No. 4973 ([3]; gene group (C), Unigene No. Rn.118529) | Behavior of gene caused by administration of chemical substance, Gene No. 4095 ([3]; gene group (C), Unigene No. Rn.119024) | Behavior of gene caused by administration of chemical substance, Gene No. 1334 [3, 5] | Behavior of gene caused by administration of chemical substance, Gene No. 6620 [3, 5] | Behavior of gene caused by administration of chemical substance, Gene No. 6303 ([3]; gene group (C), Unigene No. Rn.123063) | Behavior of gene caused by administration of chemical substance, Gene No. 5878 ([3]; gene group (C), Unigene No. Rn.143213) | Behavior of gene caused by administration of chemical substance, Gene No. 1131 ([3]; gene group (C), Unigene No. Rn.144946) | Behavior of gene caused by administration of chemical substance, Gene No. 1562 ([3]; gene group (C), Unigene No. Rn.14744) | Behavior of gene caused by administration of chemical substance, Gene No. 1741 ([3]; gene group (C), Unigene No. Rn.1647) | Behavior of gene caused by administration of chemical substance, Gene No. 893 ([3]; gene group (C), Unigene No. Rn.164817) | Behavior of gene caused by administration of chemical substance, Gene No. 6026 ([3]; gene group (C), Unigene No. Rn.167685) | Behavior of gene caused by administration of chemical substance, Gene No. 154 ([3]; gene group (C), Unigene No. Rn.185941) | Behavior of gene caused by administration of chemical substance, Gene No. 1993 ([3]; gene group (C), Unigene No. Rn.18728) | Behavior of gene caused by administration of chemical substance, Gene No. 813 ([3]; gene group (C), Unigene No. Rn.201760) | Behavior of gene caused by administration of chemical substance, Gene No. 2546 ([3]; gene group (C), Unigene No. Rn.24561) | Behavior of gene caused by administration of chemical substance, Gene No. 3776 ([3]; gene group (C), Unigene No. Rn.43232) | Behavior of gene caused by administration of chemical substance, Gene No. 3929 ([3]; gene group (C), Unigene No. Rn.4620) | Behavior of gene caused by administration of chemical substance, Gene No. 1119 ([3]; gene group (C), Unigene No. Rn.9757) | Behavior of gene caused by administration of chemical substance, Gene No. 6742 ([3]; gene group (C), Unigene No. Rn.9779) | Behavior of gene caused by administration of chemical substance, Gene No. 5634 ([3]; gene group (C), Unigene No. Rn.9862) | Behavior of gene caused by administration of chemical substance, Gene No. 5726 ([3]; gene group (D), Unigene No. Rn.9939)
